Experimental data: US6770020B2 (priority 2001, dated 2004)
“Also recorded” adds a separate entry of the source.

What was measured:
[1] = test system: human glioblastoma cells (TB 10); assay: TOF-SIMS analysis of Gd in individual cells; type: cell-based
Text: Time of Flight Secondary Ion Mass-Spectrometry (TOF-SIMS), another technique for microchemical analysis^(22) was utilized to validate data from MEPHISTO spectromicroscopy, in addition to the ICP-MS data. Cell samples were bombarded with either 15 or 25 keV Ga^+ ions, focused in a microscopic beam, which induced desorption of the surface atoms. The emitted ions were then accelerated, and detected by a high resolution mass spectrometer. By scanning the microscopic Ga ion beam, TOF-SIMS produced images of the cell surface, and distribution maps of specific element isotopes, with a spatial resolution of […]. High resolution mass spectra were obtained from microscopic areas, selected as the region of interest in the cell images, to allow quantitative comparison of Gd concentration in sub-cellular regions.
The results obtained in MEPHISTO were corroborated by the TOF-SIMS) data, an independent technique to evaluate elemental distributions at a microscopic scale. Two cells were studied from one of the etched 72-hour exposure samples used in the MEPHISTO experiment. Note in the table that the concentration of Gd is consistently higher in nuclei than in cytoplasm.
TOF-SIMS analysis of a non-etched cell at the nucleus position (also Gd-exposed for 72 hours), was performed before and after strong sputtering to probe the Gd concentration on the membrane and inside the nucleus. The total Gd ion yield, calculated as for the first column of Table 2, gave 0.055 cts/s on the unsputtered sample.
After 30 second sputtering (with 25 keV Ga˜ ions) to remove surface contamination, the total Gd ion yield from the cell membrane was 0.182 cts/s. After 16 minute sputtering to penetrate about […] into the nucleus, the total Gd ion yield was 1.844 cts/s.

[2] = test system: human glioblastoma cells (TB 10); assay: Gd-DTPA toxicity by cell counting; type: cell-based
Method: Two effects that may affect the Gd-DTPA uptake kinetics were examined: compound toxicity and cell density. Three independent series of cell cultures were grown at different densities and exposed for up to 120 hours. Cell counting performed at the end of the incubation time either in control or in Gd-treated cultures gave the same cell number.
In addition, some of the cells exposed to Gd-DTPA for 120 hours were re-plated.

LD50 in rats = type: in vivo; conditions: 70 kg human, assuming a similar LD50 in man
[3] = Cell 1, Cytoplasm, 72 hours exposure
[4] = Cell 1, Nucleus, 72 hours exposure
[5] = Cell 2, Cytoplasm, 72 hours exposure
[6] = Cell 2, Nucleus, 72 hours exposure

## O=C([O-])CN(CCN(CC(=O)[O-])CC(=O)O)CCN(CC(=O)[O-])CC(=O)O.[Gd+3] [Gd-DTPA, gadolinium diethylene triamine pentaacetic acid]
[1]; Cell 1, 72 hours exposure
  Ratio nucleus:cytoplasm, ^155Gd: 2.51
  Ratio nucleus:cytoplasm, ^155GdO: 2.52
  Ratio nucleus:cytoplasm, ^156Gd: 1.89
  Ratio nucleus:cytoplasm, ^156GdO: 2.03
  Ratio nucleus:cytoplasm, ^157GdO: 2.06
  Ratio nucleus:cytoplasm, ^158Gd: 1.53
  Ratio nucleus:cytoplasm, ^160Gd: 1.99
  Ratio nucleus:cytoplasm, ^160GdO: 2.00
  Ratio nucleus:cytoplasm, total Gd ion yield: 2.02
[1]; [3]
  Detection Rate, ^155Gd: 0.41 Counts/s
  Detection Rate, ^155GdO: 0.63 Counts/s
  Detection Rate, ^156Gd: 0.91 Counts/s
  Detection Rate, ^156GdO: 0.91 Counts/s
  Detection Rate, ^157GdO: 2.08 Counts/s
  Detection Rate, ^158Gd: 0.89 Counts/s
  Detection Rate, ^160Gd: 0.68 Counts/s
  Detection Rate, ^160GdO: 0.94 Counts/s
  Detection Rate, total Gd ion yield: 6.44 Counts/s
[1]; [4]
  Detection Rate, ^155Gd: 1.03 Counts/s
  Detection Rate, ^155GdO: 1.59 Counts/s
  Detection Rate, ^156Gd: 1.72 Counts/s
  Detection Rate, ^156GdO: 1.85 Counts/s
  Detection Rate, ^157GdO: 2.23 Counts/s
  Detection Rate, ^158Gd: 1.36 Counts/s
  Detection Rate, ^160Gd: 1.35 Counts/s
  Detection Rate, ^160GdO: 1.88 Counts/s
  Detection Rate, total Gd ion yield: 12.98 Counts/s
[1]; Cell 2, 72 hours exposure
  Ratio nucleus:cytoplasm, ^155Gd: 1.60
  Ratio nucleus:cytoplasm, ^155GdO: 1.34
  Ratio nucleus:cytoplasm, ^156Gd: 1.86
  Ratio nucleus:cytoplasm, ^156GdO: 1.41
  Ratio nucleus:cytoplasm, ^157GdO: 1.56
  Ratio nucleus:cytoplasm, ^158Gd: 1.84
  Ratio nucleus:cytoplasm, ^160Gd: 1.63
  Ratio nucleus:cytoplasm, ^160GdO: 1.72
  Ratio nucleus:cytoplasm, total Gd ion yield: 1.60
[1]; [5]
  Detection Rate, ^155Gd: 0.23 Counts/s
  Detection Rate, ^155GdO: 0.38 Counts/s
  Detection Rate, ^156Gd: 0.37 Counts/s
  Detection Rate, ^156GdO: 0.51 Counts/s
  Detection Rate, ^157GdO: 0.57 Counts/s
  Detection Rate, ^158Gd: 0.32 Counts/s
  Detection Rate, ^160Gd: 0.33 Counts/s
  Detection Rate, ^160GdO: 0.5 Counts/s
  Detection Rate, total Gd ion yield: 3.21 Counts/s
[1]; [6]
  Detection Rate, ^155Gd: 0.37 Counts/s
  Detection Rate, ^155GdO: 0.51 Counts/s
  Detection Rate, ^156Gd: 0.69 Counts/s
  Detection Rate, ^156GdO: 0.72 Counts/s
  Detection Rate, ^157GdO: 0.89 Counts/s
  Detection Rate, ^158Gd: 0.59 Counts/s
  Detection Rate, ^160Gd: 0.54 Counts/s
  Detection Rate, ^160GdO: 0.86 Counts/s
  Detection Rate, total Gd ion yield: 5.13 Counts/s
[1]; non-etched cell at the nucleus position, 72 hours exposure, unsputtered sample
  total Gd ion yield: 0.055 cts/s
[1]; non-etched cell, 72 hours exposure, after 30 second sputtering
  total Gd ion yield from the cell membrane: 0.182 cts/s
[1]; non-etched cell, 72 hours exposure, after 16 minute sputtering to penetrate about 1 pm into the nucleus
  total Gd ion yield: 1.844 cts/s
[2]; cells exposed 120 hours, re-plated, after one week
  growth and morphology after re-plating: grew normally
[2]; different concentrations of Gd-DTPA, 72 hours
  cytotoxic or cytostatic effect (cell counting vs. unexposed controls): not cytotoxic or cytostatic
[2]; exposed for up to 120 hours
  cytotoxic or cytostatic effect (cell counting vs. control): did not show any cytotoxic or cytostatic effect; also recorded: no toxic effects; also recorded: no effect on cell survival
LD50 in rats
  amount injected for a 50% chance of killing: more than 850 g
